Measurements taken from ChEMBL document CHEMBL1201862, “PubChem BioAssay data set” (2004).
Active and inactive are the calls of the source.

Experiments:
[1] = test system: A-375; assay: MITF: Counter assay: A375 proliferation Measured in Cell-Based System Using Plate Reader - 2084-03_Inhibitor_Dose_DryPowder_Activity. [Related pubchem assays (depositor defined):AID488944]; assay type: functional; conditions: Homo sapiens
[2] = growth suppression of beta-catenin-knockout colon cells, dose response, cell-based, HCT116, human colon tumor (AID 1045); assay type: functional;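 further: HCT116 colon tumor cells with beta catenin knocked out; cells exposed to compound for 60 hours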
[3] = test system: A-375; assay: A375 melanoma cell viability reduction, dose response, counter-screen for MITF modulator project, cherry-pick samples, set 2 (AID 540335); assay type: functional, cell-based; conditions: Homo sapiens
[4] = growth suppression of PTEN-null colon cells, dose response, cell-based, HCT116 PTEN knockout (AID 1047); assay type: functional;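 further: HCT116 colon tumor cells with PTEN knocked out; cells exposed to compound for 60 hours before readout; potency for loss of cell viability measured by luminescence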
[5] = cells
[6] = biological target: Nonstructural protein 1 (Influenza A virus, UniProt Q194T2); assay type: functional, Influenza A virus (A/California/07/2009(H1N1))
Sequence of Nonstructural protein 1 (Q194T2 whole entry): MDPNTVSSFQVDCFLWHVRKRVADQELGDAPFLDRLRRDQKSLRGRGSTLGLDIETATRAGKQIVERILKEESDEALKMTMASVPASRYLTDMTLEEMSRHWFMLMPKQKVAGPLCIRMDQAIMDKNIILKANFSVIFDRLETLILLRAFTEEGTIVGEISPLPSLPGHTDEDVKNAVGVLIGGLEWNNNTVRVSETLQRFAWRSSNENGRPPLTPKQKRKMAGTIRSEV

[7] = biological target: T1, Intestinal-type alkaline phosphatase (Homo sapiens, UniProt P09923); assay: human IAP inhibitors, dose response, biochemical, luminescent, uHTS hits, set 2 (AID 488793); assay type: functional
T1 sequence (P09923 whole entry): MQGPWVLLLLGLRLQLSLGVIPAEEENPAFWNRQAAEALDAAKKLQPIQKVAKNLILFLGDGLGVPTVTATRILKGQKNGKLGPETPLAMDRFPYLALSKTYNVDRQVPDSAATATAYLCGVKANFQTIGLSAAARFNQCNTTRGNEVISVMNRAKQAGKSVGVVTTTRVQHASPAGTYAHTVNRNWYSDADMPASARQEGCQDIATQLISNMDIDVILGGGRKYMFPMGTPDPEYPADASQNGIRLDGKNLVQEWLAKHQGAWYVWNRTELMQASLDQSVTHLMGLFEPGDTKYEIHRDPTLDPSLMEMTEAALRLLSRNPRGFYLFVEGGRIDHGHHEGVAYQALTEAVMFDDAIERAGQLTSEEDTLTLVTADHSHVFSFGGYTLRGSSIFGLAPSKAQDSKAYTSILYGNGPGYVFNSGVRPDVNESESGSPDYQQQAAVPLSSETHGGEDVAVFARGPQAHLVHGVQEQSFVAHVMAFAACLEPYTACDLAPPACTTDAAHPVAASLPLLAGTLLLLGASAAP

[8] = biological target: Intestinal-type alkaline phosphatase (Mus musculus, UniProt P24822); assay: PubChem AID 488874; assay type: functional
Sequence of Intestinal-type alkaline phosphatase (Mus musculus, UniProt P24822) (P24822 whole entry): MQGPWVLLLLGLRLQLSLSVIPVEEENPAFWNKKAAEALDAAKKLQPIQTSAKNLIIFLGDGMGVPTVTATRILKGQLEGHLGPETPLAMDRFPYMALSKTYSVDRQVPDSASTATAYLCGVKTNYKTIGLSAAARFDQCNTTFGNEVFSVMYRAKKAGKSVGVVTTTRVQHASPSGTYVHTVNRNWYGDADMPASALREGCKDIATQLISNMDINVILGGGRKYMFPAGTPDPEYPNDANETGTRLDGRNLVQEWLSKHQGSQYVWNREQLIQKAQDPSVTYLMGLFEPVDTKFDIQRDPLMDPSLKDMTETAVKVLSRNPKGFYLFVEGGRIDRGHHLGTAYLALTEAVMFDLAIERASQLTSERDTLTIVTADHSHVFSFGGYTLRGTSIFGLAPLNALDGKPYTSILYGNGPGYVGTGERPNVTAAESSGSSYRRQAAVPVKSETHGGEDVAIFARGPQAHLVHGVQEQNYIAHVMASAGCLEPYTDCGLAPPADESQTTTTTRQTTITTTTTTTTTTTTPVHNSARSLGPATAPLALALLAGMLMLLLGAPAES

[9] = biological target: T1, Intestinal-type alkaline phosphatase; assay: Dose Response confirmation of uHTS hits from a small molecule inhibitors of human intestinal alkaline phosphatase via a luminescent assay. [Related pubchem assays (depositor defined):AID2544, AID2574]; assay type: functional
[10] = biological target: T2, Oxysterols receptor LXR-beta (Homo sapiens, UniProt P55055); assay type: functional, cell-based;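 further: Cell-based luminescence dose-response assay of agonist activity at LXR, run as a confirmatory counterscreen to a daf-12 agonist screen; HEK293 cells with Gal4-LXR fusion and GAL4-driven luciferase reporter; agonist potency from rising luciferase signal of a Gal4-LXR reporter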
T2 sequence (P55055 whole entry): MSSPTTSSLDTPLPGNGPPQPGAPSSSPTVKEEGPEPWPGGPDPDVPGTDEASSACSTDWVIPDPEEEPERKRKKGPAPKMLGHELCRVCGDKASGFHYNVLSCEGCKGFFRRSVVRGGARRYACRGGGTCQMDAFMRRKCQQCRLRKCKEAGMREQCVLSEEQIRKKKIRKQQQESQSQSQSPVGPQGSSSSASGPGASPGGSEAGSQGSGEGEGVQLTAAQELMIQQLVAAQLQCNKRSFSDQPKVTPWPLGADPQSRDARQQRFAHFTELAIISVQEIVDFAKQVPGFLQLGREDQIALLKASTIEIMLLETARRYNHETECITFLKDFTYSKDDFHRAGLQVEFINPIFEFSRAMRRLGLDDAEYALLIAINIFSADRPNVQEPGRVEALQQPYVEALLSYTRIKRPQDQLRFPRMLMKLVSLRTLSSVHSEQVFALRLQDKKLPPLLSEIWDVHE

[11] = biological target: T3, Alkaline phosphatase, tissue-nonspecific isozyme (Homo sapiens, UniProt P05186); assay: inhibition of tissue-nonspecific alkaline phosphatase – biochemical, dose response (AID 488882); assay type: functional
T3 sequence (P05186 whole entry): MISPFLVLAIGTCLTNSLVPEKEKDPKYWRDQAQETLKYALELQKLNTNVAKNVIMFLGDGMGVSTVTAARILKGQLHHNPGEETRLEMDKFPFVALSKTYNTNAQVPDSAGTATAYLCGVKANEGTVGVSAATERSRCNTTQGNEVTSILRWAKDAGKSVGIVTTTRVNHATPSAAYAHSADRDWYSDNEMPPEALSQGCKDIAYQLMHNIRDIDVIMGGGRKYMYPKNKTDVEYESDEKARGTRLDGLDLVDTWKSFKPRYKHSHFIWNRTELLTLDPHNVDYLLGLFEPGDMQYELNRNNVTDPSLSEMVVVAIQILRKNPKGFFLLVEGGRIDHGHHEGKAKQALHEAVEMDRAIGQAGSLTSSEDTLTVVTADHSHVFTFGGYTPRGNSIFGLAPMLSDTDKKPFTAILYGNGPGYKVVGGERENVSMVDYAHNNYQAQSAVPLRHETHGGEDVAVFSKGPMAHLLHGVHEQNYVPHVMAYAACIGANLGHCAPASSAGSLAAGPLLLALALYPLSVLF

[12] = biological target: T4, Voltage-dependent T-type calcium channel subunit alpha-1H (Homo sapiens, UniProt O95180); assay: Cav3.2 T-type channel inhibitors, synthesized analogs, SAR follow-up, cell-based, synthetic library set 2, HEK293 HH8, Fluo-4 (AID 493023); assay type: functional
T4 sequence (O95180 whole entry): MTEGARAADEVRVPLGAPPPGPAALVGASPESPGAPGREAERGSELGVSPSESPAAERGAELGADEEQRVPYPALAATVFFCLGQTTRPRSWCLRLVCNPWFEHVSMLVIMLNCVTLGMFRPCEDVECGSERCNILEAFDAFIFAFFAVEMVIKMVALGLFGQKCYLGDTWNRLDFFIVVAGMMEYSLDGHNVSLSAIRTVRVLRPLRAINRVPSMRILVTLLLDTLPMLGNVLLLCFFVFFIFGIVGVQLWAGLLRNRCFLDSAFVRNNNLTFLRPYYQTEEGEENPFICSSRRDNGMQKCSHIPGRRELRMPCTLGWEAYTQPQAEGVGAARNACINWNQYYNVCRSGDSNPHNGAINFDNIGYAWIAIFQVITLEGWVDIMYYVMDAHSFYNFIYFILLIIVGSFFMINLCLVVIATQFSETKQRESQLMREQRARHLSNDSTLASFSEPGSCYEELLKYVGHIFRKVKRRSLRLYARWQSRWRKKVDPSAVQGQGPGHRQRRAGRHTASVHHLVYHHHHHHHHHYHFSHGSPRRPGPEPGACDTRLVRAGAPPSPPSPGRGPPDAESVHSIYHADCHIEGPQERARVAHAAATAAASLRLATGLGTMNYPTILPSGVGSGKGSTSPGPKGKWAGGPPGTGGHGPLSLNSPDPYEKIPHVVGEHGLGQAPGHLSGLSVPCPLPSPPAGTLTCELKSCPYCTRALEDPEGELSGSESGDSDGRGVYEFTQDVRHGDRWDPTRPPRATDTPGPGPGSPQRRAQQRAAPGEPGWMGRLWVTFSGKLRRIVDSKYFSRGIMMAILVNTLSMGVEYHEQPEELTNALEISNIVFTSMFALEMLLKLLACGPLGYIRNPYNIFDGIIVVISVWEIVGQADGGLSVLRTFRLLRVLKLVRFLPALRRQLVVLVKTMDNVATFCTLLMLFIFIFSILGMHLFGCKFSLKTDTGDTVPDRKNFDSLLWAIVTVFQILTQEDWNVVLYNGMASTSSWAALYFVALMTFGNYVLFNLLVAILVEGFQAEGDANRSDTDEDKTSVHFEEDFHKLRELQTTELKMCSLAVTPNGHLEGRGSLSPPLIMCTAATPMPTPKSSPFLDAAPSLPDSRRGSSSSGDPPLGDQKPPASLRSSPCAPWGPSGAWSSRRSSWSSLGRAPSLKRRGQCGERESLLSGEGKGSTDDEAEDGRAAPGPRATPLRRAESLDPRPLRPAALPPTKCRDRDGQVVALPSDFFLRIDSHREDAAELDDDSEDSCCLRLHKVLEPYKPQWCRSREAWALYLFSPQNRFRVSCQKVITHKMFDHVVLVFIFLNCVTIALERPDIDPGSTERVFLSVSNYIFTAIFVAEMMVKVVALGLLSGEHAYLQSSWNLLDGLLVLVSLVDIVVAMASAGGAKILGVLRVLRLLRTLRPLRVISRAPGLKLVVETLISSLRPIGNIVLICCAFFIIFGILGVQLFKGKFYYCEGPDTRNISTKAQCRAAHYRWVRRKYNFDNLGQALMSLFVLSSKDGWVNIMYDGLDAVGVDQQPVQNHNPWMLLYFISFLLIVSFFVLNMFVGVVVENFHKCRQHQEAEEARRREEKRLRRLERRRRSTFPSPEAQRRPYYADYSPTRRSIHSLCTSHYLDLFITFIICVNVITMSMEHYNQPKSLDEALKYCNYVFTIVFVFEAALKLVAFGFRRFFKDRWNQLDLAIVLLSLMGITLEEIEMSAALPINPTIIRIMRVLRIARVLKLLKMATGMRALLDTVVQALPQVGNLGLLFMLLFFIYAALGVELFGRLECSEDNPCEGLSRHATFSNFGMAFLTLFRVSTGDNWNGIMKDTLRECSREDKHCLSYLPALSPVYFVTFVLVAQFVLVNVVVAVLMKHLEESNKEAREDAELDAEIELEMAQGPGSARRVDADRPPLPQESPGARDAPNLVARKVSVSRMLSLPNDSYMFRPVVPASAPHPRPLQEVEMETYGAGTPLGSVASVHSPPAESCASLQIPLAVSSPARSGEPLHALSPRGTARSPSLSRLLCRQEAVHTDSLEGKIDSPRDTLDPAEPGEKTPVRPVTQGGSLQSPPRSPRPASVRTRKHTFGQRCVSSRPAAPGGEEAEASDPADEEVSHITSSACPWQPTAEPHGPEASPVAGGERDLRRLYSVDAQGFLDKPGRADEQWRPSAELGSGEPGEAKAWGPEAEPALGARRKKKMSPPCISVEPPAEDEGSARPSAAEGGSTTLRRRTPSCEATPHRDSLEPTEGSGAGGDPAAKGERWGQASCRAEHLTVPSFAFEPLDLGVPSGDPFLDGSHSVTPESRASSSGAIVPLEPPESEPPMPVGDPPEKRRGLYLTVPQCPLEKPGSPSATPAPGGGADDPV

[13] = biological target: T4, Voltage-dependent T-type calcium channel subunit alpha-1H; assay: Cav3.2 T-type channel blockers, cell-based, SynthLib3 library, HEK293 Cav3.2, fluorescence (AID 493041); assay type: functional

In the case of `CN(C)CCNC(=O)/C(=C/c1ccc(-c2ccc(Cl)cc2)o1)NC(=O)c1ccccc1`, the AC50 [1] is reported as > 11 µM (active), the EC50 [2] is reported as 9.77 µM (active) and the AC50 [3] is reported as > 11 µM (active). The EC50 [4] was 10.9 µM (active).

In the case of `CN(C)c1ccc(N=Nc2ccccc2Br)cc1`, the EC50 [5] is reported as > 67.5 µM (inactive), the IC50 [6] is reported as 17.2 µM (active) and the IC50 [7] is reported as 30.9 µM (active). For the same compound, the IC50 [8] was 36 µM (active), the IC50 [9] was 28.1 µM (inactive) and the EC50 [10] was > 67.5 µM (inactive). For the same compound, the IC50 [11] was 38.2 µM (active).

In the case of `CC(C)(C)CCN1CC2CCC(NC(=O)c3cc(Cl)cc(Cl)c3)C2C1` (stereo not drawn), the EC50 [12] is reported as 0.66 µM (active) and the EC50 [13] is reported as 0.08 µM (active).
